From patent US12702715B2, “Targeted RNA degradation allows precision repurposing of protein-targeted small molecule medicines to RNA” (University of Florida Research Foundation, Incorporated, priority 2020, dated 2026)
“Also recorded” adds a separate entry of the source.

Columns and labels:
PDCD4 = PDCD4 Western blot in MDA-MB-231 cells; type: cell-based, human
Method: Western Blotting. MDA-MB-231 cells were plated in 6-well plates. When they reached ~50% confluency, they were treated with vehicle (DMSO) or 4. After 48 h, the medium was removed, and the cells were washed with 1×DPBS. The cells were harvested by trypsinization, and total protein was extracted with MPER (Mammalian Protein Extraction Reagent, Thermo Scientific) as previously described^6. Protein concentrations were determined by using a Pierce Micro BCA Protein Assay kit (Fisher Scientific). Approximately 10 μg of total protein from each sample obtained above was resolved on a SDS-polyacrylamide gel (10%), and the protein were transferred to a PVDF ([…]) membrane. After blocking the membrane in 1×TBST with 5% (w/v) nonfat milk for 60 min, the membrane was incubated with 1×TBST containing 5% milk and PDCD4 (Cell Signaling Technology, 9535S) primary antibody (1:1000 dilution) at 4° C. overnight. The membrane was washed with 1×TBST for 10 min three times and then incubated with 1:2000 anti-rabbit IgG horseradish-peroxidase secondary antibody conjugate (Cell Signaling Technology, 7074S) in 1× TBST containing 5% (w/v) milk for about 2 h. After washing with 1×TBST for 10 min three times, PDCD4 protein was detected by using SuperSignal West Pico Chemiluminescent Substrate (Pierce Biotechnology). After imaging, the membrane was stripped with 1× Stripping Buffer (200 mM glycine with 0.1% SDS, pH 2.2) for 120 min at RT, and β-actin level was detected as described for PDCD4 except using β-actin (Cell Signaling Technology, 3700S) primary antibody (1:5000 dilution). ImageJ software was used for quantification of the protein bands.

MCF-10A cells = assay: Boyden chamber invasion assay, MCF-10A; type: cell-based, human; details: for invasion phenotype of MCF-10A acquired by transfection of mutant pre-miR-21: 1 binding site ablated
Method: Cell Culture. Cells were cultured at 37° C. and 5% CO2. MDA-MB-231 cells (HTB-26, ATCC) were cultured in RMPI 1640 medium with L-glutamine & 25 mM HEPES supplemented with 1× Antibiotic/Antimycotic solution (Corning) and 10% FBS. MCF-10A cells (CRL-10317, ATCC) were cultured in 1×DMEM/F12 50/50 with L-glutamine & 15 mM HEPES (Corning) supplemented with 20% FBS, 1× Antibiotic/Antimycotic solution, 20 ng/mL human epidermal growth factor (Pepro Tech, Inc.), 10 μg/mL insulin (Sigma-Aldrich), and […] hydrocortisone (Pfaltz & Bauer). For compound treatment, compound stocks either in DMSO or water were diluted in growth medium and added to cells for the indicated time. Plasmid DNA to overexpress pre-miR-21 in pcDNA 3.1 (Addgene 21114) or a plasmid DNA encoding the pre-miR-21 mutant (custom purchased from GenScript USA, Inc.) was transfected with jetPRIME per the manufacturer's protocol. After transfection, the medium was replaced with growth medium containing the compound of interest, prepared as described above. The RNase L-targeting siRNA or a control siRNA was transfected with Lipofectamine RNAiMAX reagent (Invitrogen) per the manufacturer's protocol.
Boyden Chamber Invasion Assay. MDA-MB-231 or MCF-10A cells (5×10^4) in serum free growth medium with or without compound treatment were seeded into hanging cell culture inserts (for 24-well plates) pre-coated with Matrigel. Complete growth medium was added to the bottom well. After 16-24 h, the medium was removed, and the hanging inserts were washed with 1×DPBS twice and then fixed with 4% paraformaldehyde in 1×DPBS at room temperature for 20 min. Then the inserts were washed twice with 1×DPBS and stained with 0.1% (w/v) crystal violet 1×DPBS for 20 min. The inserts were washed twice with nanopure water and once with 1×DPBS. Cells on the surface of the Matrigel (non-invasive) were removed with cotton swabs and invading cells were counted and imaged under a microscope.

pre-miR-21 WT RNA = assay: In vitro Chem-CLIP and C-Chem-CLIP, pre-miR-21 WT; type: binding, human
Method: In Vitro Chemical Cross-linking and Isolation by Pull Down (Chem-CLIP) and Competitive Chem-CLIP (C-Chem-CLIP). Growth medium [RMPI 1640 medium with L-glutamine & 25 mM HEPES (Corning)] was inactivated by heating at 95° C. to for 15 min and slowly cooling to room temperature at benchtop. Pre-miR-21 labeled with ^32P at the 5′-end (~10,000 counts) was folded in growth medium by heating at 95° C. for 1 min and slowly cooling to room temperature. To the samples was added Chem-CLIP probe 4 (1, 5, 20 or 100 μM) or negative control probe 5 (1, 5, 20 or 100 μM), and the mixtures were incubated at 37° C. for 1 h. The samples were then cross-linked by irradiation with 365 nm light for 10 min. The Chem-CLIP probe 4 or control probe 5, whether or not cross-linked to the RNA, was then clicked to disulfide biotin azide (10 mM in DMSO; 10 μL per sample; 1168-10, Click Chemistry Tools) by incubating in a solution containing 1×HEPES buffer (25 mM, pH 7), sodium ascorbate (10 μL/sample, 250 mM in H2O), CuSO4 (10 μL/sample, 50 mM in H2O), THPTA (10 μL/sample, 50 mM in H2O) for 2 h at 37° C. […] The radioactive signal from bound RNAs (on the beads) and unbound RNAs (from the wash steps) were measured by using a Beckman Coulter LS6500 Liquid Scintillation Counter. Enrichment of pre-miR-21 was calculated as previously described^6. […]

SMILES | PDCD4 expression (PDCD4; MDA-MB-231, 1 and 2 at 1 μM, LNA-21 at 100 nM) | fold more potent downstream effects than 1 (PDCD4; PTEN, PDCD4, invasion) [fold] | invasion phenotype of MCF-10A acquired by transfection of mutant pre-miR-21 (MCF-10A cells) | competition of enrichment of pre-miR-21 by 4 (pre-miR-21 WT RNA; in vitro C-Chem-CLIP) | derepression of PDCD4 expression (PDCD4; 5 μM) | invasion phenotype of MCF-10A acquired by transfection of wild type pre-miR-21 (MCF-10A cells) | invasive nature of MCF-10A cells (MCF-10A cells; no overexpression) | enrichment of 32P-labeled pre-miR-21 WT (pre-miR-21 WT RNA; 1, 5, 20 or 100 μM)
CCOC(=O)C1=C(Nc2ccccc2)S/C(=C\c2ccc(OCCOCCOCCOCCNC(=O)NCCN3CCN(c4ccc5[nH]c(-c6c(N)c7c(F)cccc7[nH]c6=O)nc5c4)CC3)c(O)c2)C1=O [Compound 2, Ribotac-Dovitinib] | derepressed | 10 | had no effect; also recorded: unable to rescue | – | – | – | – | –
CN1CCN(c2ccc3nc(-c4c(N)c5c(F)cccc5[nH]c4=O)[nH]c3c2)CC1 [Compound 1, Dovitinib, reference compound] | – | – | insensitive | competed off | ~ 60% | reverted this phenotype; also recorded: inhibited | had no effect | –
C#CCCC1(CCC(=O)NCCN2CCN(c3ccc4[nH]c(-c5c(N)c6c(F)cccc6[nH]c5=O)nc4c3)CC2)N=N1 [Compound 4] | – | – | – | – | – | – | – | dose-dependently enriched
